This note sets out measurements from the NIST ThermoML archive (doi:10.1021/je200305n).

The conditions of the data set: Liquid.

SMILES strings stand for the structures. ± gives the expanded uncertainty stated by the source.

As usually defined, the vapor or sublimation pressure is the equilibrium pressure above the liquid or solid. Consider `CO` [methanol], for which the “vapor or sublimation pressure” value (337.42 K) was determined as 100 ± 1.3 kPa.

In the case of `CC(C)=O` [acetone], the “vapor or sublimation pressure” value (329 K) is given as 100 ± 1.3 kPa.
